Experimental data as given in patent US5506211A, “Genistein for use in inhibiting osteroclasts” (The UAB Research Foundation, priority 1994, dated 1996).
Several values for one entry are separate records, joined by “and”; a condition that tells them apart may be missing. Identical values can stand only once. Like-named read-outs stand apart in the source and are kept apart here.

How the values were obtained:
avian osteoclasts [1] = assay: Bone resorption assay with [3H]-proline labeled bone and isolated osteoclasts; assay type: cell-based, Gallus domesticus; conditions: for IC (essentially complete): 72 h, read-out: concentration giving essentially complete inhibition of bone resorption; for bone resorption: negative to concentration: quadruplicate assays
Experimental: Arian osteoclasts were isolated from medullary bone of calcium-starved white leghorn laying hens, Gallus domesticus, essentially as described by Blair et al. (1986). […] 90-98% of cell mass of sedimenting material consists of osteoclasts or essentially inert red cells (Zambonin-Zallone et al., 1982; Blair et al., 1986). Although rich in osteoclasts, these preparations contain significant numbers of all other components of bone, including osteoblasts and marrow cells.
Cells were plated on glass cover slips in 3 cm petri plates for fluorescence studies, or 15 cm petri plates for Western Blots, or 24 well plates (2 cm^2 /well) for resorption and binding studies. For resorption and binding studies, cells were plated at 5×10^3 /well. Cells were maintained in α-MEM containing 5% fetal calf serum, 5% chicken serum, 100 μg/ml streptomycin and 100 units/ml penicillin at 37° C. in humidified air with 5% CO2.
Where bone was used, this was devitalized fragmented rat bone (Blair et al., 1986) sieved to sizes indicated, usually 25-50 μm. For studies of osteoclasts attached to bone or tissue culture plates, 100 μg unlabeled bone per 2 cm^2 well was used, or 5 mg per 10 cm plate.
Bone resorption was measured using [^3 H]-proline labeled bone (Blair et al., 1986).

[2] = test system: avian osteoclast membrane HCl transport; assay: Osteoclast membrane vesicle acid transport (acridine orange fluorescence quenching); assay type: biochemical, Gallus domesticus; conditions: for effect of valinomycin on inhibited vesicle acid transport: 120 mM KCl, 5 μM herbimycin, 20 μM genistein; for IC50: osteoclast membrane vesicles, read-out: half maximal inhibition of osteoclast acid transport / acid secretion; for reversal of inhibition by by-passing chloride conductivity with valinomycin: valinomycin 2 μM, potassium 120 mM; for activity on acid transport: 25 μM
in vitro = conditions: osteoclasts
Experimental: (§1) Since advantageous effects are seen at 1 μM, with half maximal effects at 2-3 μM, toxicity at 30 μM indicates a broad therapeutic margin. […] It should also be noted that doses would not be designed to achieve 100%, or even 50%, inhibition as osteoclasts are vital cells. Thus, 10-20% inhibition would likely result in a clear benefit to the patient without significant side effects, particularly as over-inhibtion would be compensated for by production of PTH.

osteoclasts [3] = assay: in vitro
Experimental: as §1

osteoclasts [4] = assay: Bone binding (adherence of labeled bone fragments to cultured osteoclasts); assay type: cell-based, Gallus domesticus
Experimental: Bone binding was determined by adherence of bone fragments to cultured cells (Carano et al., 1990). Briefly, this entailed adding labeled bone fragments to 3 day osteoclast cultures, incubating 4 h at 37° C. in a α-MEM with 5% fetal calf serum and 5% chicken serum, washing with PBS […], solubilizing the label overnight in 6N HCl, and scintillation counting.

Aqueous solubility = assay type: physicochemical
Experimental: (§2) The low aqueous solubility of genistein (<50 μg per ml) should also be considered. This might result in a maximum total absorption independent of dose. […] The present inventors have used this delivery method for studies performed in rats. […] NaTC is a naturally occurring bile salt and may have a role in the absorption of genistein released from food.

[5] = Biliary appearance of intestinally administered genistein in rats; assay type: in vivo; conditions: rat, bile, intestinal administration with NaTC, over a 4 hr period, read-out: fraction of administered genistein appearing in bile
Experimental: as §2

[6] = Southeast Asians, 70 mg per day; cited from earlier work
avian osteoclasts [7] = assay: Bone resorption assay with [3H]-proline labeled bone and isolated osteoclasts; assay type: cell-based, Gallus domesticus; conditions: Gallus gallus, Osteoclast, read-out: half maximal effect on bone resorption, 100 μg 3H-proline labeled bone, 10^4 osteoclasts

## O=c1c(-c2ccc(O)cc2)coc2cc(O)cc(O)c12 [genistein, 5,7,4'-trihydroxyisoflavone]
Avian osteoclasts [1]
  inhibition of bone resorption / degradation (FIG. 1): significantly inhibited
Avian osteoclasts [1]; Gallus gallus, Osteoclast, at 3 days
  IC (essentially complete): 20 µM
Avian osteoclasts [1]; listed as Genistein
  inhibition of bone resorption / degradation (FIG. 1): significantly inhibits
[2]
  level effective at inhibiting osteoclast acid secretion: less than 1 μM and < 0.27 μg/ml
  effect of valinomycin on inhibited vesicle acid transport: valinomycin insensitive
  IC50: ~3 µM
  reversal of inhibition by by-passing chloride conductivity with valinomycin: not reversed
[2]; doses comparable to those inhibiting bone resorption
  inhibition of osteoclast cell membrane acid transport (FIG. 2): inhibited
In vitro; chicken
  MCC: 30 µM
In vitro
  selectivity ratio: ~30
Osteoclasts [3]; 30 μM genistein
  time in which cells die: 2 to 3 days
Osteoclasts [4]
  effect on osteoclast binding to bone: alter the ability of osteoclasts to bind to bone
Aqueous solubility; mixed with sodium taurocholate (NaTC)
  aqueous solubility when mixed with bile salt: substantially enhanced
Aqueous solubility; water
  solubility: < 50 µg/mL
[5]
  dose excreted at 4 h: 40 to 50%
[6]
  ill effects of dietary intake: without obvious ill effects

## O=c1c(-c2ccc(O)cc2)coc2cc(O)ccc12 [daidzein, 4',7-dihydroxyisoflavone]
Avian osteoclasts [1]; 10 μM
  effect on bone resorption: no effect
Avian osteoclasts [1]; Gallus gallus, Osteoclast, 30 μM
  inhibition at 30 µM: ~10%
Avian osteoclasts [1]; osteoclast assay systems disclosed
  activity in the osteoclast assay systems: negligible activity
Avian osteoclasts [1]
  bone resorption: negative to concentration: > 20 µM
[2]
  activity on acid transport: inactive
[2]; 30 μM
  inhibition of osteoclast acid transport: < 20%

## CO[C@H]1[C@@H](OC)C[C@H](C)[C@@H](OC)C2=CC(=O)C=C(NC(=O)/C(C)=C/C=C\[C@H](OC)[C@@H](OC(N)=O)/C(C)=C/[C@@H]1C)C2=O [Herbimycin A]
Avian osteoclasts [1]; Gallus gallus, Osteoclast
  IC (essentially complete): 1 µM
[2]
  effective dose on osteoclast acid secretion relative to genistein, fold lower: about 10 fold
  effect of valinomycin on inhibited vesicle acid transport: restored acid transport activity
  IC50: ~2 µM
  reversal of inhibition by by-passing chloride conductivity with valinomycin: partially reversed
Osteoclasts [3]
  toxicity relative to genistein: about ten times more toxic
Osteoclasts [3]; chicken
  toxicity threshold relative to genistein, fold lower: about 10 fold
Avian osteoclasts [7]
  IC50: 0.3 to 0.5 µM

## N#CC(C#N)=Cc1cc(O)c(O)c(O)c1 [Tyrphostin A25]
[2]
  activity on acid transport: inactive

## N#CC(=Cc1ccc(O)c(O)c1)C(N)=S [Tyrphostin A47]
Avian osteoclasts [1]
  bone resorption: negative to concentration: > 20 µM
[2]
  IC50: 12 µM
